Experimental data as given in paper PMC8397425, “A Strategy to Conjugate Bioactive Fragments to Cytotoxic Diiron Bis(cyclopentadienyl) Complexes” (Organometallics, 2021).

What was measured:
COX-2 enzyme = target: T1, COX-2 enzyme (Homo sapiens, UniProt P35354); assay: COX-2 enzyme inhibition assay (fluorimetric); format: biochemical; conditions: residual enzyme activity, 25 °C, pH 8, mean ± SD
T1 construct: purchased Cayman Chemical Company
T1 sequence (P35354 18-604): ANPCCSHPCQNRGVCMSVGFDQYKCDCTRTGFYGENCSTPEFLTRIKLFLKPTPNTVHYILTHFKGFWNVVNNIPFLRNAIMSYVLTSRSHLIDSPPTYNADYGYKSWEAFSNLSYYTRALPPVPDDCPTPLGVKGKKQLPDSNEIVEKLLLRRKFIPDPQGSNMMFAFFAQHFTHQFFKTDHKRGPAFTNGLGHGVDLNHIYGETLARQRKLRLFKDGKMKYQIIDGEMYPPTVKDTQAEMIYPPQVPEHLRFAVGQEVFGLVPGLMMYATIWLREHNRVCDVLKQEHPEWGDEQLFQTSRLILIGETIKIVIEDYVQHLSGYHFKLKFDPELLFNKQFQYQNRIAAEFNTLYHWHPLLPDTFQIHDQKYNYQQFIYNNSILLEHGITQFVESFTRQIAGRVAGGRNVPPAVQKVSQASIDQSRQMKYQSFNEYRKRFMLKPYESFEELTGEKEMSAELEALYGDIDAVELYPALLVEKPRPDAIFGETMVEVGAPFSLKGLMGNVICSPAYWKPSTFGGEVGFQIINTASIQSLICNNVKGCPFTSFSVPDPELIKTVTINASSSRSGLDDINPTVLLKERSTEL
Experimental: Next, the possible role of the bioactive fragment in the complexes was studied.
The IC50 value was obtained using GraphPad Prism 7 software. All of the inhibitor assays were performed at least in triplicate.

[1] = test system: guanosine 5′-monophosphate (disodium salt, Na2[GMP]); assay: Reaction with model nucleotide GMP (mass spectrometry); conditions: D2O/CD3OD, 1 equiv Na2[GMP], 24 h at 37 °C
Experimental: The ability of [4]CF3SO3 and [9]CF3SO3 to interact with natural DNA was studied using the ethidium bromide (EB) exchange test (Figure 6), with the concentration of the complexes beingin the 1.5–124 μM range for [4]CF3SO3 and 1.4–135 μM for [9]CF3SO3. Blank experiments were carried out with the two bioactive molecules and also with DMSO to check for solvent/dilution effects. […] However, EB exchange titrations are suitable to recognize fast noncovalent binding events, but not subsequent slow covalent binding. Therefore, since chlorambucil is a DNA-alkylating agent, we studied the possible reaction of [9]CF3SO3 with the nucleotide guanosine 5′-monophosphate (disodium salt, Na2[GMP]; see Figure 4) as a model for DNA binding. Complex [9]CF3SO3 was incubated with a D2O/CD3OD mixture containing GMP for 24 h at 37 °C.
In order to analyze the interaction with a model nucleotide, a freshly prepared solution of [9]CF3SO3 (2 mg) in D2O/CD3OD (5/3 v/v) was treated with 1 equiv of anhydrous Na2[GMP]. The resulting mixture was maintained at 37 °C for 24 h, and then the final solution was filtered in order to remove some solid and analyzed by mass spectrometry. HPLC-MS(+): m/z found 1087.2451 [9^GMP + Na]^+, calcd for C47H53Fe2N8NaO12P 1087.2117; m/z found 555.0666 [9^GMP + 2Na]^2+, calcd for C47H53Fe2N8Na2O12P 555.1008. The isotopic patterns fit well the calculated patterns.

| IC50 (COX-2 enzyme) | Substance | conversion into the neutral GMP adduct 9^GMP [1] |
| --- | --- | --- |
| 30 ± 3 µM | [Fe2Cp2(CO)(μ-CO){μ-η^1:η^3-Cγ(3-C6H4OC(=O)C6H4OC(=O)Me)CβHCαNMe(Xyl)}]CF3SO3 [[4]CF3SO3] | – |
| – | [Fe2Cp2(CO)(μ-CO){μ-η^1:η^3-Cγ(3-C6H4NHC(=O)(CH2)3C6H4N(CH2CH2Cl)2)CβHCαNMe2}]CF3SO3 [[9]CF3SO3] | almost complete conversion |
